Values joined by “and” are separate entries in the source; they are usually repeats but may differ in a detail not shown here. Equal entries are not always repeated.
Test system: KRAS-mutant PDC tumor spheroid with HUVEC/MSC, viability
Test: Anticancer human tumor 327498-153-R-J2-PDC patient-derived uterine carcinosarcoma cell line growth inhibition [KRAS2]
Settings: for viability, T/C: stronger effect = lower value
Method in brief: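 KRAS-mutant tumor cells were grown as spheroids with HUVEC endothelial cells and human MSCs as stroma. Targeted agents were tested alone and with KRAS pathway inhibitors. Doses started at or near clinical Cmax, or 10 microM, descending half-log.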

[1] = curve of first compound, second compound 0.1 µM
[2] = curve of first compound, second compound 0.316 µM
[3] = curve of first compound, second compound 1 µM
[4] = curve of first compound, second compound 3.16 µM
[5] = curve of first compound, second compound 10 µM
[6] = second compound 0.1 µM, first compound 0.0316 µM
[7] = second compound 0.316 µM, first compound 0.0316 µM
[8] = second compound 1 µM, first compound 0.0316 µM
[9] = second compound 3.16 µM, first compound 0.0316 µM
[10] = second compound 10 µM, first compound 0.0316 µM
[11] = second compound 0.1 µM, first compound 0.1 µM
[12] = second compound 0.1 µM, first compound 0.316 µM
[13] = second compound 0.1 µM, first compound 1 µM
[14] = second compound 0.1 µM, first compound 3.16 µM
[15] = second compound 0.1 µM, first compound 10 µM
[16] = second compound 0.316 µM, first compound 0.1 µM
[17] = second compound 0.316 µM, first compound 0.316 µM
[18] = second compound 0.316 µM, first compound 1 µM
[19] = second compound 0.316 µM, first compound 3.16 µM
[20] = second compound 0.316 µM, first compound 10 µM
[21] = second compound 1 µM, first compound 0.1 µM
[22] = second compound 1 µM, first compound 0.316 µM
[23] = second compound 1 µM, first compound 1 µM
[24] = second compound 1 µM, first compound 3.16 µM
[25] = second compound 1 µM, first compound 10 µM
[26] = second compound 3.16 µM, first compound 0.1 µM
[27] = second compound 3.16 µM, first compound 0.316 µM
[28] = second compound 3.16 µM, first compound 1 µM
[29] = second compound 3.16 µM, first compound 3.16 µM
[30] = second compound 3.16 µM, first compound 10 µM
[31] = second compound 10 µM, first compound 0.1 µM
[32] = second compound 10 µM, first compound 0.316 µM
[33] = second compound 10 µM, first compound 1 µM
[34] = second compound 10 µM, first compound 3.16 µM
[35] = second compound 10 µM, first compound 10 µM
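Further: spheroids exposed to agents for seven days before reading.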
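Wherever viability, T/C is given: 100% = DMSO vehicle wells so lower means fewer viable cells.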

Structure (SMILES): CC(=O)Nc1cccc(-n2c(=O)n(C3CC3)c(=O)c3c(Nc4ccc(I)cc4F)n(C)c(=O)c(C)c32)c1 + CC1OCC2(CCN(c3cnc(Sc4ccnc(N)c4Cl)c(N)n3)CC2)C1N
- IC50 [1]: 1.66 nM
- IC50 [2]: 0.493 nM
- IC50 [3]: < 0.1 nM
- IC50 [4]: < 0.1 nM
- IC50 [5]: < 0.1 nM
- viability, T/C (second compound 0.1 µM, first compound 0.0001 µM): 75.2%
- viability, T/C (second compound 0.1 µM, first compound 0.000316 µM): 58.4%
- viability, T/C (second compound 0.1 µM, first compound 0.001 µM): 50.2%
- viability, T/C (second compound 0.1 µM, first compound 0.00316 µM): 46.5%
- viability, T/C (second compound 0.1 µM, first compound 0.01 µM): 44.7%
- viability, T/C [6]: 26.3%
- viability, T/C (second compound 0.316 µM, first compound 0.0001 µM): 52.7%
- viability, T/C (second compound 0.316 µM, first compound 0.000316 µM): 52.4%
- viability, T/C (second compound 0.316 µM, first compound 0.001 µM): 48.2%
- viability, T/C (second compound 0.316 µM, first compound 0.00316 µM): 40.8%
- viability, T/C (second compound 0.316 µM, first compound 0.01 µM): 35%
- viability, T/C [7]: 22.8%
- viability, T/C (second compound 1 µM, first compound 0.0001 µM): 41%
- viability, T/C (second compound 1 µM, first compound 0.000316 µM): 35.2%
- viability, T/C (second compound 1 µM, first compound 0.001 µM): 34.9%
- viability, T/C (second compound 1 µM, first compound 0.00316 µM): 29.7%
- viability, T/C (second compound 1 µM, first compound 0.01 µM): 26.8%
- viability, T/C [8]: 16.1%
- viability, T/C (second compound 3.16 µM, first compound 0.0001 µM): 31.1%
- viability, T/C (second compound 3.16 µM, first compound 0.000316 µM): 26.9%
- viability, T/C (second compound 3.16 µM, first compound 0.001 µM): 22.1%
- viability, T/C (second compound 3.16 µM, first compound 0.00316 µM): 22.1%
- viability, T/C (second compound 3.16 µM, first compound 0.01 µM): 17.2%
- viability, T/C [9]: 13.1%
- viability, T/C (second compound 10 µM, first compound 0.0001 µM): 22.8%
- viability, T/C (second compound 10 µM, first compound 0.000316 µM): 21.3%
- viability, T/C (second compound 10 µM, first compound 0.001 µM): 21.6%
- viability, T/C (second compound 10 µM, first compound 0.00316 µM): 15.8%
- viability, T/C (second compound 10 µM, first compound 0.01 µM): 13.9%
- viability, T/C [10]: 11.3%

Structure (SMILES): COC(=O)c1ccc2c(C(=Nc3ccc(N(C)C(=O)CN4CCN(C)CC4)cc3)c3ccccc3)c(O)[nH]c2c1 + C=CC(=O)N1CCN(c2nc(=O)n(-c3c(C)ccnc3C(C)C)c3nc(-c4c(O)cccc4F)c(F)cc23)C(C)C1
- IC50 [1]: 68.6 nM
- IC50 [2]: < 31.6 nM
- IC50 [3]: < 31.6 nM
- IC50 [4]: < 31.6 nM
- IC50 [5]: < 31.6 nM
- viability, T/C [6]: 55.6%
- viability, T/C [11]: 47%
- viability, T/C [12]: 33.8%
- viability, T/C [13]: 21.5%
- viability, T/C [14]: 8.48%
- viability, T/C [15]: 8.12%
- viability, T/C [7]: 48.5%
- viability, T/C [16]: 46.1%
- viability, T/C [17]: 31.3%
- viability, T/C [18]: 12.5%
- viability, T/C [19]: 6.86%
- viability, T/C [20]: 4.83%
- viability, T/C [8]: 46%
- viability, T/C [21]: 44.4%
- viability, T/C [22]: 27.5%
- viability, T/C [23]: 16.6%
- viability, T/C [24]: 7.4%
- viability, T/C [25]: 3.38%
- viability, T/C [9]: 42.4%
- viability, T/C [26]: 35%
- viability, T/C [27]: 19.1%
- viability, T/C [28]: 11.5%
- viability, T/C [29]: 6.26%
- viability, T/C [30]: 4.47%
- viability, T/C [10]: 39%
- viability, T/C [31]: 31.1%
- viability, T/C [32]: 22.9%
- viability, T/C [33]: 13.2%
- viability, T/C [34]: 3.4%
- viability, T/C [35]: 1.04%

Structure (SMILES): CN(C)C/C=C/C(=O)Nc1cc2c(Nc3ccc(F)c(Cl)c3)ncnc2cc1O[C@H]1CCOC1
- viability, T/C (compound 0.000316 µM): 99.1% [middle of 5 runs]
- viability, T/C (compound 0.001 µM): 97% [middle of 5 runs]
- viability, T/C (compound 0.00316 µM): 95.1% [middle of 5 runs]
- viability, T/C (compound 0.01 µM): 104% [middle of 5 runs]
- viability, T/C (compound 0.0316 µM): 100% [middle of 5 runs]
- viability, T/C (compound 0.1 µM): 90.8% [middle of 5 runs]
- IC50 (curve of compound): > 100 nM

Structure (SMILES): CC(C)NCC(C(=O)N1CCN(c2ncnc3c2C(C)CC3O)CC1)c1ccc(Cl)cc1 (stereo not drawn) + C=CC(=O)N1CCN(c2nc(=O)n(-c3c(C)ccnc3C(C)C)c3nc(-c4c(O)cccc4F)c(F)cc23)C(C)C1
- IC50 [1]: 41.8 nM
- IC50 [2]: < 31.6 nM
- IC50 [3]: < 31.6 nM
- IC50 [4]: < 31.6 nM
- IC50 [5]: < 31.6 nM
- viability, T/C [6]: 54.5%
- viability, T/C [11]: 36.3%
- viability, T/C [12]: 22.2%
- viability, T/C [13]: 15.3%
- viability, T/C [14]: 11.2%
- viability, T/C [15]: 9.06%
- viability, T/C [7]: 46.5%
- viability, T/C [16]: 32.4%
- viability, T/C [17]: 15.7%
- viability, T/C [18]: 13.5%
- viability, T/C [19]: 11%
- viability, T/C [20]: 7.87%
- viability, T/C [8]: 48.2%
- viability, T/C [21]: 29.6%
- viability, T/C [22]: 19.9%
- viability, T/C [23]: 13.5%
- viability, T/C [24]: 10.4%
- viability, T/C [25]: 7.77%
- viability, T/C [9]: 39.5%
- viability, T/C [26]: 27.3%
- viability, T/C [27]: 17.8%
- viability, T/C [28]: 12.2%
- viability, T/C [29]: 9.99%
- viability, T/C [30]: 8.2%
- viability, T/C [10]: 33.5%
- viability, T/C [31]: 18.2%
- viability, T/C [32]: 14.6%
- viability, T/C [33]: 9.84%
- viability, T/C [34]: 9.14%
- viability, T/C [35]: 3.03%

Structure (SMILES): COc1cc2nccc(Oc3ccc(NC(=O)C4(C(=O)Nc5ccc(F)cc5)CC4)cc3)c2cc1OC + C=CC(=O)N1CCN(c2nc(OCC3CCCN3C)nc3c2CCN(c2cccc4cccc(C)c24)C3)CC1CC#N
- IC50 (curve of first compound, second compound 0.0316 µM): 1290 nM
- IC50 [1]: < 31.6 nM
- IC50 [2]: < 31.6 nM
- IC50 [3]: < 31.6 nM
- IC50 [4]: < 31.6 nM
- viability, T/C (second compound 0.0316 µM, first compound 0.0316 µM): 60.9%
- viability, T/C (second compound 0.0316 µM, first compound 0.1 µM): 55.4%
- viability, T/C (second compound 0.0316 µM, first compound 0.316 µM): 55.6%
- viability, T/C (second compound 0.0316 µM, first compound 1 µM): 63.9%
- viability, T/C (second compound 0.0316 µM, first compound 3.16 µM): 18.4%
- viability, T/C (second compound 0.0316 µM, first compound 10 µM): 0.28%
- viability, T/C [6]: 48.4%
- viability, T/C [11]: 50%
- viability, T/C [12]: 50.4%
- viability, T/C [13]: 47.8%
- viability, T/C [14]: 17.3%
- viability, T/C [15]: 0.84%
- viability, T/C [7]: 45%
- viability, T/C [16]: 48.5%
- viability, T/C [17]: 52.1%
- viability, T/C [18]: 45%
- viability, T/C [19]: 15%
- viability, T/C [20]: 0.62%
- viability, T/C [8]: 44.1%
- viability, T/C [21]: 40.3%
- viability, T/C [22]: 39.3%
- viability, T/C [23]: 43.3%
- viability, T/C [24]: 11.1%
- viability, T/C [25]: 0.15%
- viability, T/C [9]: 0.22%
- viability, T/C [26]: 0.17%
- viability, T/C [27]: 0.17%
- viability, T/C [28]: 0.16%
- viability, T/C [29]: 0.13%
- viability, T/C [30]: 0.24%

Structure (SMILES): CCNC(=O)CC1N=C(c2ccc(Cl)cc2)c2cc(OC)ccc2-n2c(C)nnc21 (stereo not drawn) + CC1OCC2(CCN(c3cnc(Sc4ccnc(N)c4Cl)c(N)n3)CC2)C1N
- IC50 [1]: 346 nM
- IC50 [2]: 102 nM
- IC50 [3]: < 31.6 nM
- IC50 [4]: < 31.6 nM
- IC50 [5]: < 31.6 nM
- viability, T/C [6]: 64.3%
- viability, T/C [11]: 68%
- viability, T/C [12]: 49.8%
- viability, T/C [13]: 37.8%
- viability, T/C [14]: 38.8%
- viability, T/C [15]: 27.5%
- viability, T/C [7]: 51.8%
- viability, T/C [16]: 51.5%
- viability, T/C [17]: 37.9%
- viability, T/C [18]: 27.9%
- viability, T/C [19]: 26.2%
- viability, T/C [20]: 22.4%
- viability, T/C [8]: 42%
- viability, T/C [21]: 35.4%
- viability, T/C [22]: 31.7%
- viability, T/C [23]: 18.3%
- viability, T/C [24]: 17.8%
- viability, T/C [25]: 16.8%
- viability, T/C [9]: 31.3%
- viability, T/C [26]: 26.1%
- viability, T/C [27]: 20.4%
- viability, T/C [28]: 16.9%
- viability, T/C [29]: 13.6%
- viability, T/C [30]: 11.8%
- viability, T/C [10]: 20.1%
- viability, T/C [31]: 20.7%
- viability, T/C [32]: 18.2%
- viability, T/C [33]: 13.9%
- viability, T/C [34]: 12%
- viability, T/C [35]: 10.9%

Structure (SMILES): C=CC(=O)N1CCN(c2nc(=O)n(-c3c(C)ccnc3C(C)C)c3nc(-c4c(O)cccc4F)c(F)cc23)C(C)C1 (stereo not drawn)
- IC50 (compound alone, run of 07/12/2021): > 10000 nM and 1310 nM and 1220 nM

Reference: PubChem BioAssay AID1963867 (Molecular Pharmacology Branch, DTP, NCI, 2024)
